Results as given in patent publication US7592436B2, “Gene encoding a protein having aurone synthesis activity” (International Flower Developments Proprietary Limited, priority 1998, dated 2009).

Experiments:
aurone synthase = experiment: Measurement of aurone synthase activity (HPLC); assay type: biochemical, snapdragon; conditions: for Conversion of substrate to aureusidin by purified aurone synthase: product confirmed by HPLC analysis
Protocol: The reaction was started by adding 5 μl of THC, having an absorbance of 462 at 366 nm in ethanol, to 50 μl of 1 M sodium acetate buffer (pH 5.0) and 350 μl of crude enzyme solution diluted with water. After allowing to react for 1 hour at 30° C., and adding 100 μl of an aqueous solution of 90% (v/v) acetonitrile containing 1% (v/v) TFA to stop the reaction, activity was measured by HPLC. The crude enzyme solution in each purification step described later in Example 4 was measured.
The YMC J'Sphere ODS M80 column (4.6×150 mm) was used and the flow rate was set at 0.7 ml/min. Using a 0.1% aqueous solution of TFA as solvent A, and a 90% aqueous solution of acetonitrile containing 0.1% TFA as solvent B, a sample was injected into the column, after which the ratio of A:B was held at 7:3 for first 3 minutes, and then changed to 6:4 by a linear concentration gradient for next 10 minutes. This concentration was maintained for 5 minutes. After changing the ratio of A:B to 7:3 for next one minute, this concentration was maintained for 5 minutes.

tyrosinase = experiment: Aurone synthesis activity of tyrosinase; assay type: biochemical, Neurospora; conditions: HPLC
Protocol: After mixing tyrosinase (Sigma catalog no. T7755; 0.04 mg/ml, 10 μl), 0.1 M sodium phosphate buffer (pH 6.5, 335 μl), 9% CHAPS (20 μl) and milli-Q water (20 μl), the mixture was incubated for 10 minutes at 30° C., followed by the addition of tetrahydroxychalcone (THC, 4.3 mM in ethanol, 15 μl), stirring immediately and reacting for 30 minutes at 30° C. After reaction, 100 μl of reaction stopping solution (10% trifluoroacetate solution containing 90% acetonitrile) was added to the reaction mixture to stop the reaction, followed by HPLC analysis. Analysis was performed in the same manner as described in Example 3. Water was used instead of tyrosinase as a control.
In addition, the reaction was carried out under the same conditions using pentahydroxychalcone (PHC) instead of THC as a substrate, and using 0.116 M sodium citrate phosphate buffer (pH 5.4) as a buffer. Similarly, water was used instead of tyrosinase as a control.

Structure (SMILES) | Change of enzyme activity on addition (aurone synthase; hydrogen peroxide added) | Conversion of substrate to aureusidin by purified aurone synthase (aurone synthase) | Reaction product formed from substrate by tyrosinase (tyrosinase; 0.1 M sodium phosphate buffer pH 6.5, 30 minutes at 30° C.) | Reaction product formed from substrate by tyrosinase (tyrosinase; 0.116 M sodium citrate phosphate buffer pH 5.4, 30 minutes at 30° C.)
OO [hydrogen peroxide] | activity increased somewhat |  |  | 
O=C(/C=C/c1ccc(O)cc1)c1c(O)cc(O)cc1O [THC, tetrahydroxychalcone] |  | converts both THC and pentahydroxychalcone to aureusidin | reaction product aureusidin | 
O=C(/C=C/c1ccc(O)c(O)c1)c1c(O)cc(O)cc1O [pentahydroxychalcone] |  | converts both THC and pentahydroxychalcone to aureusidin |  | reaction product aureusidin
